In patent US20160354411A1, “OLIVAMINE-INDUCED IMPROVEMENT IN ENDOTHELIAL CELLS VIABILITY AND FUNCTION” (priority 2015, published 2016):

How the values were obtained:
[1] = system: human microvascular endothelial cells; experiment: in vitro model of wound healing, time for 50% wound to heal; format: cell-based
Excerpt: The time for wounds to heal by 50% under the various treatment conditions was quantified.

[2] = system: human umbilical vein endothelial cells (HUVEC); experiment: HUVEC cell migration / wound gap closure with or without 30 mM glucose pre-treatment; format: cell-based; conditions: for Time for 50% wound to heal: 24 hours incubation before wounding; for Healing Improvement (%): compared to untreated cells
Description: Additional wound studies were conducted using umbilical cord stem cells in addition to the use of hydroxytyrosol compositions and commercially-available OLIVAMINE® (compositions of hydroxytyrosol and oleuropein) compositions (20 μM hydroxytyrosol, 80 μM oleuropein, 2 mM N-acetylcysteine, 50 μM L-proline, 2 mM glycine and 100 μM taurine). These were evaluated with human umbilical vein endothelial cells (HUVEC) to assess impact on cell migration and wound healing.
HUVEC cells. Human umbilical vein endothelial cells are derived from the endothelium of veins from the umbilical cord (HUVEC primary cells purchased from Lonza). HUVECs have been widely used as a model system for the study of the regulation of endothelial cell function and the role of the endothelium in response of the blood vessel wall to stretch, shear forces and the development of atherosclerotic plaques and angiogenesis. For the following study, HUVECs are a primary endothelial cell line as a model system for the function and pathology of endothelial cells. We investigated improvement in cell proliferation and migration following treatment with OLIVAMINE® (compositions of hydroxytyrosol and oleuropein) composition.
In this study, HUVEC cells were pre-treated with or without 30 mM glucose for 3 days (72 hours). The cells were then equilibrated for a day (24 hours), and incubated with 50 μM hydroxytyrosol or OLIVAMINE® (compositions of hydroxytyrosol and oleuropein) formulation (20 μM hydroxytyrosol, 80 μM oleuropein, 2 mM N-acetylcysteine, 50 μM L-proline, 2 mM glycine and 100 μM taurine) for 24 hours before wounding.
Images were taken at intervals and the wound gap was quantified over time using IMAGE® analysis software. […] The distances measured are depicted in the Figures by the horizontal solid lines indicating the distance between the gaps of the wound. 100 measurements were taken per image and a mean gap distance was determined. As shown in FIGS. 7-8 the initial wound and 24 hour measurement are shown by the images, under both control (FIG. 7A) and high glucose (FIG. 8A). In addition the reduction in percentage of open wound is further shown graphically for the control (FIG. 7B) and high glucose (FIG. 8B) conditions. The time for 50% of the wound to heal was quantified as well as the percentage of improvement compared to untreated cells.

[3] = system: HMEC-1 cells; experiment: crystal violet cell viability assay; format: cell-based, human; conditions: 24 hours; HT 0-200 μM, OL 0-800 μM, Formulation 1 0-4×
Description: A crystal violet cell viability assay was performed to determine the cytotoxic effects of OLIVAMINE® (compositions of hydroxytyrosol and oleuropein) composition on HMEC-1 cells. Briefly, cells were seeded on a 24-well plate and treated for 24 h dose-titration concentrations of HT (0-200 μM), OL (0-800 μM), OLIVAMINE® (compositions of hydroxytyrosol and oleuropein) composition (McCord formulation 1, dilution factor=4×, Table 8). Following treatment, cells were washed twice with 0.9% saline and fixed with […] of 4% neutral formalin for 15-30 min. Cells were then stained with […] of 0.01% (w/v) crystal violet for 30 min, washed with dH2O and left to dry under a fume hood overnight. Cells were then lysed with […] of lysis buffer for 15 min on a rotating platform and the absorbance of each well was measured at the 560 nm wavelength using a microplate spectrophotometer.
To determine whether olive phenols influence cell proliferation, a crystal violet cell viability analysis was conducted. The relative cell viability of HMEC-1 cells was investigated. Cells were incubated with varying concentrations of HT (0-200 μM), OL (0-800 μM) and Formulation 1 (Table 8, 0-4×) 24 hours.

[4] = system: proliferative cells; experiment: induction or maintenance of a quiescent cell state; format: cell-based; conditions: evidence obtained to-date
Description: More specifically, when present at a concentration above a threshold level, hydroxytyrosol can induce proliferative cells into a quiescent state and help maintain cells in a pre-existing quiescent state. Based upon evidence obtained to-date, the threshold concentration is about 10 μM hydroxytyrosol.

[5] = Table 9, single ingredients, Present Art and Present Art without one ingredient

Row | SMILES | Time for 50% wound to heal ([1]; Table 1) [h] | Time for 50% wound to heal [1, 5] [h] | effect on cell proliferation / viability [3] | other results
1 | OCCc1ccc(O)c(O)c1 [Hydroxytyrosol] | 19.25 | 19.25 | no significantly effects on cell proliferation | less effective than the present art combination ([1]; hydroxytyrosol alone): 30%; Time for 50% wound to heal ([2]; High Glucose (30 mM, 72 hours)): 15.2 h; Healing Improvement (%) ([2]; High Glucose): 30%; Time for 50% wound to heal ([2]; no glucose pre-treatment): 19.7 h; Healing Improvement (%) ([2]; no glucose pre-treatment): 10%; threshold concentration for inducing or maintaining quiescence [4]: about 10 μM
2 | CC(=O)N[C@@H](CS)C(=O)O [N-acetylcysteine, N-acetyl-L-cysteine, reference compound] | 28.87 | 28.87 | – | effect on time and extent of wound healing (in words) ([1]; compared to untreated or to single ingredients, absence and presence of glucose): increased the time to 50% healing compared to untreated
3 | NCC(=O)O [Glycine] | – | 20.73 | – | –
4 | O=C(O)[C@@H]1CCCN1 [L-proline] | – | 23.24 | – | –
5 | NCCS(=O)(=O)O [L-Taurine] | – | 22.5 | – | –
6 | C/C=C1/[C@H](O[C@@H]2O[C@H](CO)[C@@H](O)[C@H](O)[C@H]2O)OC=C(C(=O)OC)[C@H]1CC(=O)OCCc1ccc(O)c(O)c1 [Oleuropein] | 25.62 | 25.62 | no significantly effects on cell proliferation | –
